One test has as its system Lolium. Put plainly: Post-emergence greenhouse pot trial, Lolium (Example I, Table I). Type of test: in vivo. To be noted: greenhouse pots, 4 weeks. As to the method: (§1) Seeds of weed grasses were sown in pots filled with loamy soil and placed in the greenhouse for germination and emergence. As soon as the plants had developed 3 or 4 leaves, they were sprayed with wettable powder formulations, suspended in water, of compounds according to the invention.
(§2) The results and also the results of all following examples were evaluated 4 weeks later according to the following scheme:
(§3) 4 is still considered an acceptable herbicidal effect in weeds and a satisfactory preserving effect in crop plants (cf. Bolle, Nachrichtenblatt des Deutschen Pflanzenschutzdienstes 16, 1964, pages 92-94).
(§4) Effect on weed grasses in a post-emergence trial in pots
(§5) in the greenhouse (Evaluation scheme)

The next test concerns weed grasses. Put plainly: Pre-emergence greenhouse pot trial, weed grasses overall (Example V). The following applies: in words. Type of test: in vivo. As to the method: as §2
In a greenhouse the compounds to be tested were sprayed on the surface of the soil directly after sowing. […] Dicotyledonous crop plants (the same as used in Example I) were not damaged by the applied amounts.
Effect on weed grasses in a pre-emergence process (evalua-
tion scheme) experiment in pots in the greenhouse.

In another test the test system is Digitaria. Put plainly: Post-emergence greenhouse pot trial, Digitaria (Example I, Table I). Type of test: in vivo. The following applies: greenhouse pots, 4 weeks. As for the experimental part: as §1, §2, §3, §4, §5
The next test relates to Setaria. The experiment in a line: Post-emergence greenhouse pot trial, Setaria (Example I, Table I). Type of test: in vivo. The following applies: greenhouse pots, 4 weeks. As to the method:
as §1, §2, §3, §4, §5

The test system of another test is Echinochloa. The experiment in a line: Post-emergence greenhouse pot trial, Echinochloa (Example I, Table I). Type of test: in vivo. To be noted: greenhouse pots, 4 weeks. As to the method: as §1, §2, §3, §4, §5
In another test the test system is Alopecurus. Put plainly: Post-emergence greenhouse pot trial, annual blackgrass (Example I, Table I). Type of test: in vivo, annual blackgrass (Alopecurus). The following applies: greenhouse pots, 4 weeks. As for the experimental part: as §1, §2, §3, §4, §5
In a further test the test system is wild oat. Put plainly: Post-emergence trial in the greenhouse, wild oat (Example VII, Table VII). Type of test: in vivo. To be noted: 31 kg/hectare, emulsion concentrate, 4 weeks after treatment. As to the method:
as §2
In a greenhouse some of the compounds of the invention were sprayed on plants of wild oat, the compounds being used as emulsion concentrates.
(§6) Post-emergence trial in the greenhouse
Effect on wild oat 4 weeks after treatment
Dose 31 kg/hectare of active compound (as emulsion

The next test deals with barnyard grass. Put plainly: Post-emergence trial in the greenhouse, barnyard grass (Example VIII, Table VIII). Type of test: in vivo. To be noted: 31 kg/hectare, wettable powder, 4 weeks after treatment, 3 to 4 leaf-stage. As for the experimental part: as §2
In a similar trial some of the compounds of the invention were sprayed in the form of wettable powder formulations on barnyard grass in the 3 to 4 leaf-stage.
as §6
Effect on barnyard grass 4 weeks after treatment
Dose 31 kg/hectare of active compound (as wettable

Take `CCOC(=O)C(C)Oc1ccc(Oc2ccc(Br)cc2Cl)cc1` (stereo not drawn) [Compound 1b, 4-(2'-chloro-4'-bromophenoxy)-α-phenoxy-propionic acid ethyl ester]: the results for the “Effect on weed grasses (evaluation scheme number), Lolium” value (from here on “Effect on weed grasses … Lolium”) with Lolium (0.15 kg/hectare), with Lolium (0.62 kg/hectare) and in the test with Lolium (2.5 kg/hectare) were 6 (75.0 to <85.0), 2 (97.5 to <100) and 1 (100), respectively. For the same compound, the “effect in pre-emergence treatment compared with comparative compound A” value (“effect … compared with comparative compound A” below) with weed grasses was “Analogous results”. The “Effect on weed grasses (evaluation scheme number), Digitaria” value (shortened to “Effect on weed grasses … Digitaria”) in the test with Digitaria (0.15 kg/hectare) is reported as 7 (65.0 to <75.0); in the test with Digitaria (0.62 kg/hectare), 1 (100); with Digitaria (2.5 kg/hectare), 1 (100). Further, the “Effect on weed grasses (evaluation scheme number), Setaria” value (“Effect on weed grasses … Setaria” below) with Setaria (0.15 kg/hectare), with Setaria (0.62 kg/hectare) and in the test with Setaria (2.5 kg/hectare) was 1 (100) each time. Besides, the “Effect on weed grasses (evaluation scheme number), Echinochloa” value (“Effect on weed grasses … Echinochloa” below) in the test with Echinochloa (0.15 kg/hectare), in the test on Echinochloa (0.62 kg/hectare) and in the test with Echinochloa (2.5 kg/hectare) was 1 (100) in each case. In addition, the results for the “Effect on weed grasses (evaluation scheme number), Alopecurus” value (“Effect on weed grasses … Alopecurus” below) in the test with Alopecurus (0.15 kg/hectare), in the test with Alopecurus (0.62 kg/hectare) and in the test on Alopecurus (2.5 kg/hectare) were 6 (75.0 to <85.0), 1 (100) and 1 (100), respectively. For the same compound, the “effect (number) on wild oat” value in the test with wild oat is recorded as 1 (100).
As to `CC(C)OC(=O)C(C)Oc1ccc(Oc2ccc(Br)cc2Cl)cc1` (stereo not drawn) [Compound 1c, 4-(2'-chloro-4'-bromophenoxy)-α-phenoxy-propionic acid isopropyl ester], the “Effect on weed grasses … Lolium” value was 5 (85.0 to <90.0) with Lolium (0.15 kg/hectare), 4 (90.0 to <95.0) with Lolium (0.62 kg/hectare) and 3 (95.0 to <.97.5) in the test with Lolium (2.5 kg/hectare). In the test with weed grasses, the “effect … compared with comparative compound A” value was “Analogous results”. The “Effect on weed grasses … Digitaria” value was 7 (65.0 to <75.0) with Digitaria (0.15 kg/hectare), 4 (90.0 to <95.0) in the test with Digitaria (0.62 kg/hectare) and 1 (100) in the test on Digitaria (2.5 kg/hectare). The “Effect on weed grasses … Setaria” value with Setaria (0.15 kg/hectare) is reported as 3 (95.0 to <.97.5); in the test on Setaria (0.62 kg/hectare), 1 (100); in the test with Setaria (2.5 kg/hectare) it was 1 (100). Also, the “Effect on weed grasses … Echinochloa” value in the test with Echinochloa (0.15 kg/hectare), in the test with Echinochloa (0.62 kg/hectare) and in the test on Echinochloa (2.5 kg/hectare) was 1 (100) each time. Besides, the “Effect on weed grasses … Alopecurus” value is listed as 6 (75.0 to <85.0) with Alopecurus (0.15 kg/hectare), 3 (95.0 to <.97.5) in the test on Alopecurus (0.62 kg/hectare) and 1 (100) in the test on Alopecurus (2.5 kg/hectare). Further, the “effect (number) on barnyard grass” value in the test on barnyard grass was 1 (100). Further, in the test with wild oat, the “effect (number) on wild oat” value is recorded as 1 (100).
In the case of `CCCCOC(=O)C(C)Oc1ccc(Oc2ccc(Br)cc2Cl)cc1` (stereo not drawn) [Compound 1d, 4-(2'-chloro-4'-bromophenoxy)-α-phenoxy-propionic acid n-butyl ester], the entries for the “Effect on weed grasses … Lolium” value in the test on Lolium (0.15 kg/hectare), with Lolium (0.62 kg/hectare) and with Lolium (2.5 kg/hectare) were 6 (75.0 to <85.0), 4 (90.0 to <95.0) and 2 (97.5 to <100), respectively. The “effect … compared with comparative compound A” value in the test with weed grasses is on record as “Analogous results”. The “Effect on weed grasses … Digitaria” value in the test with Digitaria (0.15 kg/hectare) was 6 (75.0 to <85.0); in the test on Digitaria (0.62 kg/hectare) it was 1 (100); in the test with Digitaria (2.5 kg/hectare), 1 (100). In addition, the “Effect on weed grasses … Setaria” value with Setaria (0.15 kg/hectare) was 2 (97.5 to <100); with Setaria (0.62 kg/hectare), 1 (100); with Setaria (2.5 kg/hectare), 1 (100). The figures for the “Effect on weed grasses … Echinochloa” value with Echinochloa (0.15 kg/hectare), in the test with Echinochloa (0.62 kg/hectare) and with Echinochloa (2.5 kg/hectare) were 2 (97.5 to <100), 1 (100) and 1 (100), respectively. For the same compound, the “Effect on weed grasses … Alopecurus” value with Alopecurus (0.15 kg/hectare) is 3 (95.0 to <.97.5); in the test on Alopecurus (0.62 kg/hectare), 2 (97.5 to <100); in the test with Alopecurus (2.5 kg/hectare) it was 1 (100). Besides, the “effect (number) on wild oat” value in the test with wild oat was 1 (100).
On to `CC(C)COC(=O)C(C)Oc1ccc(Oc2ccc(Br)cc2Cl)cc1` (stereo not drawn) [Compound 1e, 4-(2'-chloro-4'-bromophenoxy)-α-phenoxy-propionic acid isobutyl ester], for which the “effect (number) on wild oat” value in the test on wild oat is 2 (97.5 to <100).
On to `CC(Oc1ccc(Oc2ccc(Br)cc2Cl)cc1)C(=O)O` (stereo not drawn) [Compound 2b], for which, in the test with barnyard grass, the “effect (number) on barnyard grass” value is 3 (95.0 to <.97.5).
As for `CC(Oc1ccc(Oc2ccc(Br)cc2Cl)cc1)C(=O)O` (stereo not drawn) [Compound 2c], in the test with barnyard grass, the “effect (number) on barnyard grass” value is reported as 1 (100).
Same read-out and setting: the value for `CC(Oc1ccc(Oc2ccc(Br)cc2Cl)cc1)C(=O)O` (stereo not drawn) [Compound 2d] was 1 (100); that for `CC(Oc1ccc(Oc2ccc(Br)cc2Cl)cc1)C(=O)O` (stereo not drawn) [Compound 2e] was 4 (90.0 to <95.0).
